Measurements as given in ChEMBL document CHEMBL1123398, “Conformationally restricted inhibitors of angiotensin converting enzyme: synthesis and computations” (J Med Chem, 1986).
Blank lines part the entries; values can stand above or below the molecule they belong to.

Assays:
[1] = target: T1, Angiotensin-converting enzyme (Homo sapiens, UniProt P12821); test: Inhibitory concentration (isomer A) against Angiotensin I converting enzyme
[2] = target: T1, Angiotensin-converting enzyme; test: Inhibitory concentration (isomer B) against Angiotensin I converting enzyme
[3] = target: T1, Angiotensin-converting enzyme; test: Inhibitory concentration against Angiotensin I converting enzyme
[4] = target: T1, Angiotensin-converting enzyme; test: Inhibitory concentration against Angiotensin I converting enzyme; IA is Inactive with 0% inhibition at 3.3 x 10e-4;

T1 sequence (P12821 whole entry): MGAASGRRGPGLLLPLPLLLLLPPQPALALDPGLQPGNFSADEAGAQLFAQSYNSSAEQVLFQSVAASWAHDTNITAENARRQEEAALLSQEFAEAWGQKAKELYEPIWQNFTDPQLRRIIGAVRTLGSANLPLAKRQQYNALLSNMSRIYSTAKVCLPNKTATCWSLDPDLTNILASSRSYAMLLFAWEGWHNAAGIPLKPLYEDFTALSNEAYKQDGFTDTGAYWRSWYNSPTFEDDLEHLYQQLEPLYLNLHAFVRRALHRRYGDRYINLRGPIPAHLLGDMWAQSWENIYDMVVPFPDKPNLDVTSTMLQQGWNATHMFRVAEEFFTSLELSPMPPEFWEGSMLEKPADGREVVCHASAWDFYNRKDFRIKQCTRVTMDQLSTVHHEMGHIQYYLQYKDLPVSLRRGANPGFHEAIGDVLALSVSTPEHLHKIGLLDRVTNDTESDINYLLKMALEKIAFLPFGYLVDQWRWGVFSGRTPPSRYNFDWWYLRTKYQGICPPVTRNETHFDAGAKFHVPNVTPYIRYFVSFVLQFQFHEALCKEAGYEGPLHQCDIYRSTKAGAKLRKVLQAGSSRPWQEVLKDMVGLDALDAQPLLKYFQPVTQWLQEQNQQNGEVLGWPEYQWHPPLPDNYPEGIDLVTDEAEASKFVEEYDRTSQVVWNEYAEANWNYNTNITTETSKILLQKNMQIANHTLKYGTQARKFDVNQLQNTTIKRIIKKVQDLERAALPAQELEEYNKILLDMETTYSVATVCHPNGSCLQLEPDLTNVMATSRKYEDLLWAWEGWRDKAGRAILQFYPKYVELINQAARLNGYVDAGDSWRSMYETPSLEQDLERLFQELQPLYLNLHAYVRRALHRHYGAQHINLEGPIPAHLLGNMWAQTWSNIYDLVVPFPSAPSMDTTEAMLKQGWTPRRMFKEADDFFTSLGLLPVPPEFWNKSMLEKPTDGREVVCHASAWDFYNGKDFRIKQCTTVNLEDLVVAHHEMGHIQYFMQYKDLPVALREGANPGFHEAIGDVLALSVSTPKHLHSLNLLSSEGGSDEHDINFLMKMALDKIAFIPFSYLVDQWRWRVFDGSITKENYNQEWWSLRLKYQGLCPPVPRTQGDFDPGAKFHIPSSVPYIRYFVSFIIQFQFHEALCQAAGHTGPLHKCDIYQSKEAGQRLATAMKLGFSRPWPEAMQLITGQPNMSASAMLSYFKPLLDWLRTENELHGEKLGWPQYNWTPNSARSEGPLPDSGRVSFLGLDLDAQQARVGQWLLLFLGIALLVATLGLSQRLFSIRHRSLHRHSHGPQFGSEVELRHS

SMILES: NC1CCCN(CC(=O)O)C1=O (stereo unspecified)
IC50 [3]: 1700 µM

SMILES: NC1CCCCN(CC(=O)O)C1=O (stereo unspecified)
IC50 [3]: 480 µM

SMILES: NC1CCN(CC(=O)O)C1=O (stereo unspecified)
IC50 [4]: Not Active

SMILES: NC1CCCCCN(CC(=O)O)C1=O (stereo unspecified)
IC50 [3]: 440 µM

SMILES: O=C(O)CN1CCCCCCC(NC(CCc2ccccc2)C(=O)O)C1=O (stereo unspecified)
IC50 [1]: 1.3 µM
IC50 [2]: 0.0081 µM

The next lines start with the values.

IC50 [1]: 12 µM
IC50 [2]: 19 µM
SMILES: O=C(O)CN1CCC(NC(CCc2ccccc2)C(=O)O)C1=O (stereo unspecified)

IC50 [1]: 1.7 µM
IC50 [2]: 0.0048 µM
SMILES: O=C(O)CN1CCCCCC(NC(CCc2ccccc2)C(=O)O)C1=O (stereo unspecified)

IC50 [2]: 0.002 µM
SMILES: O=C(O)CN1CCCCC[C@H](N[C@@H](CCc2ccccc2)C(=O)O)C1=O

IC50 [1]: 0.43 µM
IC50 [2]: 1.7 µM
SMILES: O=C(O)CN1CCCC(NC(CCc2ccccc2)C(=O)O)C1=O (stereo unspecified)

IC50 [2]: 0.092 µM
SMILES: O=C(O)CN1CCCCC[C@@H](N[C@H](CCc2ccccc2)C(=O)O)C1=O

IC50 [1]: 0.7 µM
IC50 [2]: 0.019 µM
SMILES: O=C(O)CN1CCCCC(NC(CCc2ccccc2)C(=O)O)C1=O (stereo unspecified)
